Assay: xn = mol fraction of the nth substance listed
Details: Liquid, Vibrating tube method

CC(C)CCl [1-chloro-2-methylpropane] + CCCCCCC
mass density [kg/m3]
Details	303.15 K	313.15 K	323.15 K
100 kPa, x2 = 0.0531	851.74	840.36	828.79
100 kPa, x2 = 0.1023	839.04	827.85	816.48
100 kPa, x2 = 0.2009	815.06	804.22	793.26
100 kPa, x2 = 0.3009	792.69	782.2	771.57
100 kPa, x2 = 0.3981	772.58	762.38	752.04
100 kPa, x2 = 0.4986	753.31	743.42	733.39
100 kPa, x2 = 0.5998	735.29	725.7	715.95
100 kPa, x2 = 0.7038	718.11	708.77	699.34
100 kPa, x2 = 0.7993	703.45	694.32	685.15
100 kPa, x2 = 0.8995	689.05	680.21	671.24
100 kPa, x2 = 0.9507	682.07	673.34	664.49
2000 kPa, x2 = 0.0531	853.98	842.7	831.42
2000 kPa, x2 = 0.1023	841.31	830.21	819.08
2000 kPa, x2 = 0.2009	817.39	806.67	795.85
2000 kPa, x2 = 0.3009	794.98	784.62	774.11
2000 kPa, x2 = 0.3981	774.81	764.76	754.54
2000 kPa, x2 = 0.4986	755.48	745.75	735.78
2000 kPa, x2 = 0.5998	737.44	727.98	718.28
2000 kPa, x2 = 0.7038	720.22	711.05	701.64
2000 kPa, x2 = 0.7993	705.49	696.57	687.35
2000 kPa, x2 = 0.8995	691.14	682.44	673.46
2000 kPa, x2 = 0.9507	684.19	675.59	666.75
5000 kPa, x2 = 0.0531	857.38	846.39	835.4
5000 kPa, x2 = 0.1023	844.68	833.87	823.02
5000 kPa, x2 = 0.2009	820.73	810.25	799.77
5000 kPa, x2 = 0.3009	798.27	788.13	777.97
5000 kPa, x2 = 0.3981	778.06	768.2	758.35
5000 kPa, x2 = 0.4986	758.67	749.13	739.53
5000 kPa, x2 = 0.5998	740.59	731.29	721.98
5000 kPa, x2 = 0.7038	723.33	714.28	705.28
5000 kPa, x2 = 0.7993	708.59	699.76	690.97
5000 kPa, x2 = 0.8995	694.18	685.54	677.02
5000 kPa, x2 = 0.9507	687.22	678.7	670.29
7000 kPa, x2 = 0.0531	859.64	848.82	838.13
7000 kPa, x2 = 0.1023	846.92	836.28	825.7
7000 kPa, x2 = 0.2009	822.92	812.64	802.4
7000 kPa, x2 = 0.3009	800.42	790.49	780.57
7000 kPa, x2 = 0.3981	780.18	770.54	760.9
7000 kPa, x2 = 0.4986	760.74	751.42	742.03
7000 kPa, x2 = 0.5998	742.6	733.56	724.42
7000 kPa, x2 = 0.7038	725.32	716.53	707.68
7000 kPa, x2 = 0.7993	710.55	701.96	693.36
7000 kPa, x2 = 0.8995	696.12	687.72	679.35
7000 kPa, x2 = 0.9507	689.13	680.86	672.58
10000 kPa, x2 = 0.0531	862.96	852.24	841.75
10000 kPa, x2 = 0.1023	850.21	839.68	829.31
10000 kPa, x2 = 0.2009	826.15	815.97	805.94
10000 kPa, x2 = 0.3009	803.62	793.76	784.05
10000 kPa, x2 = 0.3981	783.33	773.76	764.32
10000 kPa, x2 = 0.4986	763.84	754.58	745.38
10000 kPa, x2 = 0.5998	745.64	736.65	727.75
10000 kPa, x2 = 0.7038	728.31	719.62	710.93
10000 kPa, x2 = 0.7993	713.5	705.01	696.57
10000 kPa, x2 = 0.8995	699.03	690.72	682.48
10000 kPa, x2 = 0.9507	692.03	683.8	675.7
20000 kPa, x2 = 0.0531	873	863.01	853.08
20000 kPa, x2 = 0.1023	860.17	850.29	840.6
20000 kPa, x2 = 0.2009	835.94	826.35	817.1
20000 kPa, x2 = 0.3009	813.23	804.06	794.98
20000 kPa, x2 = 0.3981	792.77	783.83	775.23
20000 kPa, x2 = 0.4986	773.13	764.52	755.93
20000 kPa, x2 = 0.5998	754.8	746.45	738.09
20000 kPa, x2 = 0.7038	737.29	729.18	721.08
20000 kPa, x2 = 0.7993	722.32	714.39	706.61
20000 kPa, x2 = 0.8995	707.71	699.99	692.36
20000 kPa, x2 = 0.9507	700.65	692.96	685.54
30000 kPa, x2 = 0.0531	882.09	872.66	863.29
30000 kPa, x2 = 0.1023	869.13	859.97	850.64
30000 kPa, x2 = 0.2009	844.8	835.81	826.96
30000 kPa, x2 = 0.3009	821.91	813.29	804.68
30000 kPa, x2 = 0.3981	801.3	792.99	784.58
30000 kPa, x2 = 0.4986	781.52	773.45	765.27
30000 kPa, x2 = 0.5998	763.03	755.17	747.25
30000 kPa, x2 = 0.7038	745.43	737.72	730.1
30000 kPa, x2 = 0.7993	730.33	722.79	715.4
30000 kPa, x2 = 0.8995	715.6	708.23	700.96
30000 kPa, x2 = 0.9507	708.5	701.14	694.07
40000 kPa, x2 = 0.0531	890.44	881.46	872.52
40000 kPa, x2 = 0.1023	877.39	868.66	859.81
40000 kPa, x2 = 0.2009	852.91	844.37	835.84
40000 kPa, x2 = 0.3009	829.87	821.69	813.46
40000 kPa, x2 = 0.3981	809.15	801.27	793.25
40000 kPa, x2 = 0.4986	789.24	781.56	773.87
40000 kPa, x2 = 0.5998	770.61	763.14	755.68
40000 kPa, x2 = 0.7038	752.83	745.56	738.29
40000 kPa, x2 = 0.7993	737.59	730.5	723.4
40000 kPa, x2 = 0.8995	722.73	715.76	708.85
40000 kPa, x2 = 0.9507	715.55	708.64	701.87
50000 kPa, x2 = 0.0531	898.25	889.63	881.03
50000 kPa, x2 = 0.1023	885.12	876.7	868.25
50000 kPa, x2 = 0.2009	860.41	852.23	844.11
50000 kPa, x2 = 0.3009	837.32	829.5	821.56
50000 kPa, x2 = 0.3981	816.52	808.88	801.14
50000 kPa, x2 = 0.4986	796.41	789.11	781.63
50000 kPa, x2 = 0.5998	777.65	770.57	763.29
50000 kPa, x2 = 0.7038	759.78	752.8	745.73
50000 kPa, x2 = 0.7993	744.45	737.67	730.8
50000 kPa, x2 = 0.8995	729.47	722.82	716.06
50000 kPa, x2 = 0.9507	722.23	715.59	709.05
60000 kPa, x2 = 0.0531	905.4	897.18	888.87
60000 kPa, x2 = 0.1023	892.33	884.27	876.05
60000 kPa, x2 = 0.2009	867.48	859.72	851.78
60000 kPa, x2 = 0.3009	844.24	836.81	829.15
60000 kPa, x2 = 0.3981	823.28	815.99	808.64
60000 kPa, x2 = 0.4986	803.13	796.1	788.91
60000 kPa, x2 = 0.5998	784.27	777.45	770.47
60000 kPa, x2 = 0.7038	766.25	759.57	752.78
60000 kPa, x2 = 0.7993	750.88	744.29	737.68
60000 kPa, x2 = 0.8995	735.73	729.33	722.83
60000 kPa, x2 = 0.9507	728.44	722.04	715.76
65000 kPa, x2 = 0.0531	908.87	900.74	892.62
65000 kPa, x2 = 0.1023	895.79	887.8	879.77
65000 kPa, x2 = 0.2009	870.84	863.12	855.45
65000 kPa, x2 = 0.3009	847.58	840.18	832.75
65000 kPa, x2 = 0.3981	826.58	819.3	812.18
65000 kPa, x2 = 0.4986	806.34	799.37	792.37
65000 kPa, x2 = 0.5998	787.42	780.62	773.88
65000 kPa, x2 = 0.7038	769.32	762.72	756.14
65000 kPa, x2 = 0.7993	753.84	747.34	741.15
65000 kPa, x2 = 0.8995	738.7	732.38	726.04
65000 kPa, x2 = 0.9507	731.35	725.02	718.95
